Laboratory results taken from PubChem BioAssay (NCI).
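All cell lines were grown in 96-well plates and treated with compound for 48 hours. At the TGI there is no net growth.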

Key:
Test in all cases: NCI anticancer screen, dose series, 48 h
[1] = system: OVCAR-8 ovarian
[2] = system: SK-MEL-5 melanoma
[3] = system: CAKI-1 renal
[4] = system: CCRF-CEM leukemia
[5] = system: KM20L2 colon
[6] = system: 786-0 renal
[7] = system: SK-MEL-2 melanoma
[8] = system: SN12C renal
[9] = system: NCI-H23 lung
[10] = system: IGROV1 ovarian
[11] = system: HOP-62 NSCLC
[12] = system: DMS 273 small cell lung
[13] = system: UO-31 renal
[14] = system: K-562 leukemia
[15] = system: HOP-18 NSCLC
[16] = system: DLD-1 colon
[17] = system: UACC-257 melanoma
[18] = system: SK-OV-3 ovarian
[19] = system: HCT-116 colon
[20] = system: SNB-78 CNS
[21] = system: OVCAR-3 ovarian
[22] = system: SK-MEL-28 melanoma
[23] = system: LXFL 529 NSCLC
[24] = system: U251 CNS
[25] = system: HCC-2998 colon
[26] = system: SNB-75 CNS
[27] = system: TK-10 renal
[28] = system: KM12 colon
[29] = system: LOX IMVI melanoma
[30] = system: SW-620 colon
[31] = system: M19-MEL melanoma
[32] = system: COLO 205 colon
[33] = system: MALME-3M melanoma
[34] = system: HL-60(TB) leukemia
[35] = system: NCI-H522 lung
[36] = system: MOLT-4 leukemia
[37] = system: SNB-19 CNS
[38] = system: RXF 393 renal
[39] = system: OVCAR-4 ovarian
[40] = system: SF-295 CNS
[41] = system: A549 NSCLC
[42] = system: HT29 colon
[43] = system: M14 melanoma
[44] = system: HCT-15 colon
[45] = system: ACHN renal
[46] = system: SF-539 CNS
[47] = system: NCI-H460 lung
[48] = system: SF-268 CNS
[49] = system: A498 renal
[50] = system: OVCAR-5 ovarian
[51] = system: DMS 114 small cell lung
[52] = system: NCI-H226 lung
[53] = system: RPMI-8226 leukemia
[54] = system: HOP-92 NSCLC
[55] = system: SR leukemia
[56] = system: UACC-62 melanoma
[57] = system: EKVX NSCLC

Compound: CC(=O)Nc1ccc(-c2nnc(SCC(=O)Nc3ccc(Cl)cc3Cl)o2)cc1
- TGI [1]: > 100 µM
- TGI [2]: 37.4 µM
- TGI [3]: > 100 µM
- TGI [4]: > 100 µM
- TGI [5]: > 100 µM
- TGI [6]: 44.3 µM
- TGI [7]: > 100 µM
- TGI [8]: 57.5 µM
- TGI [9]: > 100 µM
- TGI [10]: > 100 µM
- TGI [11]: > 100 µM
- TGI [12]: > 100 µM
- TGI [13]: > 100 µM
- TGI [14]: > 100 µM
- TGI [15]: > 100 µM
- TGI [16]: > 100 µM
- TGI [17]: > 100 µM
- TGI [18]: > 100 µM
- TGI [19]: > 100 µM
- TGI [20]: > 100 µM
- TGI [21]: 57.9 µM
- TGI [22]: > 100 µM
- TGI [23]: 54.7 µM
- TGI [24]: 38.7 µM
- TGI [25]: > 100 µM
- TGI [26]: 96.6 µM
- TGI [27]: > 100 µM
- TGI [28]: > 100 µM
- TGI [29]: > 100 µM
- TGI [30]: > 100 µM
- TGI [31]: > 100 µM
- TGI [32]: 68.3 µM
- TGI [33]: 60.3 µM
- TGI [34]: > 100 µM
- TGI [35]: 48.3 µM
- TGI [36]: > 100 µM
- TGI [37]: 51.9 µM
- TGI [38]: 66.3 µM
- TGI [39]: > 100 µM
- TGI [40]: > 100 µM
- TGI [41]: > 100 µM
- TGI [42]: > 100 µM
- TGI [43]: > 100 µM
- TGI [44]: > 100 µM
- TGI [45]: > 100 µM
- TGI [46]: 84.4 µM
- TGI [47]: > 100 µM
- TGI [48]: > 100 µM
- TGI [49]: > 100 µM
- TGI [50]: > 100 µM
- TGI [51]: 38.7 µM
- TGI [52]: 99 µM

Compound: O=[N+]([O-])c1ccc(C2CC(c3ccc(NCc4nc5ccccc5[nH]4)cc3)=NO2)cc1 (centres undefined)
- TGI [1]: > 100 µM
- TGI [2]: 32.5 µM
- TGI [3]: > 100 µM
- TGI [4]: > 100 µM
- TGI [6]: > 100 µM
- TGI [7]: > 100 µM
- TGI [8]: > 100 µM
- TGI [9]: > 100 µM
- TGI [10]: > 100 µM
- TGI [11]: > 100 µM
- TGI [12]: > 100 µM
- TGI [13]: > 100 µM
- TGI [14]: > 100 µM
- TGI [15]: > 100 µM
- TGI [16]: > 100 µM
- TGI [18]: > 100 µM
- TGI [19]: > 100 µM
- TGI [21]: 57.4 µM
- TGI [22]: > 100 µM
- TGI [23]: 97.9 µM
- TGI [24]: > 100 µM
- TGI [53]: > 100 µM
- TGI [25]: > 100 µM
- TGI [26]: > 100 µM
- TGI [27]: > 100 µM
- TGI [28]: > 100 µM
- TGI [29]: > 100 µM
- TGI [30]: > 100 µM
- TGI [31]: > 100 µM
- TGI [32]: > 100 µM
- TGI [33]: > 100 µM
- TGI [34]: > 100 µM
- TGI [35]: > 100 µM
- TGI [36]: > 100 µM
- TGI [37]: > 100 µM
- TGI [38]: > 100 µM
- TGI [39]: > 100 µM
- TGI [40]: > 100 µM
- TGI [41]: > 100 µM
- TGI [42]: > 100 µM
- TGI [54]: > 100 µM
- TGI [55]: > 100 µM
- TGI [43]: > 100 µM
- TGI [44]: > 100 µM
- TGI [45]: > 100 µM
- TGI [46]: > 100 µM
- TGI [47]: > 100 µM
- TGI [48]: > 100 µM
- TGI [49]: 73.5 µM
- TGI [50]: > 100 µM
- TGI [51]: > 100 µM
- TGI [56]: > 100 µM

Compound: COc1ccc2c(c1)[n+](=O)c(C(=O)CC(=O)C(=O)Nc1cccc(Cl)c1C)c(C)n2[O-]
- TGI [57]: > 100 µM
- TGI [1]: > 100 µM
- TGI [2]: > 100 µM
- TGI [3]: > 100 µM
- TGI [4]: 71.2 µM
- TGI [5]: > 100 µM
- TGI [6]: > 100 µM
- TGI [7]: > 100 µM
- TGI [8]: > 100 µM
- TGI [9]: > 100 µM
- TGI [10]: > 100 µM
- TGI [11]: > 100 µM
- TGI [12]: > 100 µM
- TGI [13]: > 100 µM
- TGI [14]: > 100 µM
- TGI [15]: > 100 µM
- TGI [17]: > 100 µM
- TGI [18]: > 100 µM
- TGI [19]: > 100 µM
- TGI [20]: > 100 µM
- TGI [21]: 94.7 µM
- TGI [22]: > 100 µM
- TGI [23]: > 100 µM
- TGI [24]: > 100 µM
- TGI [53]: > 100 µM
- TGI [25]: > 100 µM
- TGI [26]: > 100 µM
- TGI [27]: > 100 µM
- TGI [28]: > 100 µM
- TGI [29]: > 100 µM
- TGI [30]: > 100 µM
- TGI [31]: > 100 µM
- TGI [32]: > 100 µM
- TGI [33]: > 100 µM
- TGI [34]: > 100 µM
- TGI [35]: 58 µM
- TGI [36]: > 100 µM
- TGI [37]: > 100 µM
- TGI [38]: > 100 µM
- TGI [39]: > 100 µM
- TGI [40]: > 100 µM
- TGI [41]: > 100 µM
- TGI [42]: > 100 µM
- TGI [54]: > 100 µM
- TGI [55]: > 100 µM
- TGI [43]: > 100 µM
- TGI [44]: > 100 µM
- TGI [45]: > 100 µM
- TGI [46]: > 100 µM
- TGI [47]: > 100 µM
- TGI [48]: > 100 µM
- TGI [49]: > 100 µM
- TGI [50]: > 100 µM
- TGI [52]: > 100 µM
- TGI [56]: > 100 µM
